Measurements: EP1222194B1, “7-ACYLAMINO-3-HETEROARYLTHIO-3-CEPHEM CARBOXYLIC ACID ANTIBIOTICS AND PRODRUGS THEREOF” (priority 1999, dated 2001)
Converted amounts (≈) assume the structure as drawn.

Legend:
[1] = system: S. aureus ATCC 29213; experiment: Broth microdilution MIC (NCCLS); assay type: cell-based; conditions: Staphylococcus aureus, ATCC29213, Mueller-Hinton Broth, 24 h at 35 °C
Procedure: (§1) Compounds were evaluated for antimicrobial activity against a panel of bacterial strains using a broth microdilution assay performed as recommended by the NCCLS (1). The minimum inhibitory concentration (MIC) was defined as the lowest concentration of drug which prevented the growth of the bacteria. The following 16 organisms constituted the primary panel of evaluation:
(§2) For this primary panel, the assay was performed in Mueller-Hinton Broth (MHB) with a final bacterial inoculum of 5 x 10^5 CFU/mL (from an early-log phase culture) and a final volume of 100 µL. Control drugs, including imipenem, vancomycin, Penicillin G, dicloxacillin (vs. MSSA ATCC29213 only), and new compounds were prepared at a concentration equivalent to 2-fold the desired final concentration. Dilution of compounds were prepared directly in the plates by serial 2-fold dilution using a multichannel pipette. Positive and negative growth control were included in each plate.
(§3) The bacterial inocula were prepared as follows. For each strain one isolated colony was used to inoculate a volume of 8 mL of Mueller-Hinton broth and these cultures were incubated overnight (20h) at 35 °C in a shaking incubator. At the exception of Enterococcus strains, culture were then diluted 1:10 and allowed to grow for an additional one hour at 35 °C in a shaking incubator. The inocula were prepared by diluting the early log-phase (1h) cultures 1:1000 with fresh Mueller-Hinton broth. E. faecium and E. faecalis were prepared by diluting overnight cultures 1:333 and 1:666, respectively, with fresh Mueller-Hinton broth . A volume of 50 µL of the inocula was added to each well. […] The exact inocula were determined by applying […] of 10-fold serial dilution of the bacterial suspensions on TSA. After overnight incubation at 35 °C, colony forming units were manually counted.
(§4) Microtiter plates were incubated during 24 h at 35 °C and were read using a microtiterplate reader (Molecular Devices) at 650 nm as well as by visual observation using a microtiterplate reading mirror.

[2] = system: E. faecium ATCC 35667; experiment: Broth microdilution MIC (NCCLS); assay type: cell-based; conditions: Enterococcus faecium, ATCC35667, Mueller-Hinton Broth, 24 h at 35 °C
Procedure: as §1, §2, §3, §4

[3] = system: E. faecium A491 (Amp^R); experiment: Broth microdilution MIC (NCCLS); assay type: cell-based; conditions: Enterococcus faecium, Mueller-Hinton Broth, 24 h at 35 °C
Procedure: as §1, §2, §3, §4

[4] = system: E. faecalis ATCC 29212; experiment: Broth microdilution MIC (NCCLS); assay type: cell-based; conditions: Enterococcus faecalis, ATCC29212, Mueller-Hinton Broth, 24 h at 35 °C
Procedure: as §1, §2, §3, §4

[5] = system: S. aureus 76 (Meth^R)(lac^+); experiment: Broth microdilution MIC (NCCLS); assay type: cell-based; conditions: Staphylococcus aureus, Mueller-Hinton Broth, 24 h at 35 °C
Procedure: as §1, §2, §3, §4

[6] = system: P. aeruginosa ATCC 27853; experiment: Broth microdilution MIC (NCCLS); assay type: cell-based; conditions: Pseudomonas aeruginosa, ATCC27853, Mueller-Hinton Broth, 24 h at 35 °C
Procedure: as §1, §2, §3, §4

[7] = system: S. aureus PC1 (Meth^S)(lac^+); experiment: Broth microdilution MIC (NCCLS); assay type: cell-based; conditions: Staphylococcus aureus; S. aureus PC1 (Meth^S)(lac^+); Mueller-Hinton Broth, 24 h at 35 °C; read-out: MIC
Procedure: as §1, §2, §3, §4

[8] = system: S. haemolyticus 05 (Meth^R); experiment: Broth microdilution MIC (NCCLS); assay type: cell-based; conditions: Staphylococcus haemolyticus, Mueller-Hinton Broth, 24 h at 35 °C
Procedure: as §1, §2, §3, §4

[9] = system: S. aureus Spain #356 (Meth^R); experiment: Broth microdilution MIC (NCCLS); assay type: cell-based; conditions: Staphylococcus aureus, Mueller-Hinton Broth, 24 h at 35 °C
Procedure: as §1, §2, §3, §4

[10] = system: E. faecalis VanB (Van^R); experiment: Broth microdilution MIC (NCCLS); assay type: cell-based; conditions: Enterococcus faecalis, Mueller-Hinton Broth, 24 h at 35 °C
Procedure: as §1, §2, §3, §4

[11] = system: E. coli ATCC25992; experiment: Broth microdilution MIC (NCCLS); assay type: cell-based; conditions: Escherichia coli, Mueller-Hinton Broth, 24 h at 35 °C
Procedure: as §1, §2, §3, §4

[12] = system: S. aureus ATCC 33593 (Meth^R); experiment: Broth microdilution MIC (NCCLS); assay type: cell-based; conditions: Staphylococcus aureus, ATCC33593, Mueller-Hinton Broth, 24 h at 35 °C
Procedure: as §1, §2, §3, §4

[13] = system: E. faecium VanA (Van^R); experiment: Broth microdilution MIC (NCCLS); assay type: cell-based; conditions: Enterococcus faecium, Mueller-Hinton Broth, 24 h at 35 °C
Procedure: as §1, §2, §3, §4

[14] = In vitro stability of compounds in rat serum; assay type: in vitro ADME; conditions: compared with other 7-acylamino-3-heteroarylthio-3-cephem carboxylic acids
Procedure: In general, compounds from the class of 7-acylamino-3-heteroarylthio-3-cephem carboxylic acids have higher chemical reactivity and lower stability towards chemical or enzymatic decomposition than most typical cephalosporins. […] Results shown in Table 2 represent percentage loss of the initial amount of cephalosporin compound upon 60 min incubation in rat serum.
Procedure for measuring degree of degradation of cephalosporin compounds in rat serum was as follows:
Fresh control rat serum (heparinized and stored frozen) is preincubated at 37 °C for 15 min in a shaking water bath. pH is measured using test strips. 25 µL of a 2 mg/mL solution cephalosporin compound (in water) of is then added to each matrix to make 1000 µL. Solutions were incubated at 37 °C. 100ul of solution was taken out at time = 0, 15, 30, and 60 min post dose and added 200 µL 4% trichloroacetic acid, vortexed, and centrifuged for 10 min at 14,000 rpm in an Eppendorfmicrocentrifuge. 25 µL of each supernatant was injected onto HPLC. Experiment was repeated using 25 µL of a 0.2 mg/mL cephalosporin compound. Degradation is measured as the percentage of HPLC peak area at time t relative to peak area at time 0.
HPLC conditions: Beckman Ultrasphere C18 column. 5u. 4.6mm x 25cm. 1 mL/min of 95% 0.1 M ammonium acetate, pH 6, 5% ACN going to 75% buffer/organic over 20min. UV monitored at 254 and 280 nm.

[15] = system: S. aureus ATCC 13709 (Smith diffuse); experiment: Murine model for lethal bacteremic peritonitis (septicemia); assay type: in vivo, mice; conditions: for Efficacy in murine septicemia %survival: subcutaneously at 0 and 2 hrs post-challenge
Procedure: 10 mice/group were injected intraperitoneally with 2.98x10^7 cfu S. aureus ATCC 13709 (Smith diffuse) and treated at 0 and 2hrs post-challenge with serial two-fold doses of new cephalosporin antibiotic, imipenem and vancomycin subcutaneously in order to determine the ED50. Male Swiss-Webster mice weighing originally 24.2 - 26.1 g were obtained from Charles Rivers Labs, Hollister, CA. Mice were housed 10 per cage and given free access to water and mouse chow.
Staphylococcus aureus ATCC 13709 (Smith diffuse) was grown overnight at 37 °C in Brain-heart Infusion broth (BHIB). The following morning, it was subcultured to fresh BHIB and incubated for 4-5h at 37 °C. The log-phase growth cells were washed once with physiological saline and adjusted to the desired concentration by correlation of absorbency at OD 600 nm with predetermined plate counts (NCCLS, 1994). The cell suspension was mixed with an equal volume of sterile 14% hog-gastric mucin (2). Inoculum was kept in an ice bath until used (<1h).
Mice were challenged via an injection of 0.5 mL bacterial suspension intraperitoneally. The bacterial challenge was 2.98 x 10^7 cfu/mouse.
Imipenem (Primaxin IV; Lot 7294A), vancomycin (Vancocin; Lot 8MU60W), and new cephalosporin antibiotic were prepared by serial two-fold dilutions to concentrations of 0.078 - 0.005 mg/mL, 1.2 - 0.075 mg/mL, 0.3 - 0.02 mg/mL, 0.3 - 0.02 mg/mL and 0.3 - 0.02 mg/mL respectively in sterile water (1). All antibiotics were administered subcutaneously in 0.1 mL volumes at 0 and 2 hours post-challenge. Concentrations of all compounds are based on the weight of the bioactive ingredients.
The 50% effective dose (ED50) was calculated by the probit method (3) utilizing a program entitled Probit (Nycomed-Salutar).

[16] = Serum binding determination by ultrafiltration and HPLC; assay type: in vitro ADME; conditions: % of compound bound to serum as determined by HPLC; human serum
Procedure: The more accurate measurement of binding of selected cephalosporin compounds was performed using HPLC as described below. […] Serum is placed in a shaking water bath preheated to 37 ± 2 °C for 5 to 10 minutes to heat serum to 37 °C. Serum pH is measured and recorded, while serum is 37 °C using pH paper. Measurements are taken twice, 3 minutes apart. […] After blowing for several minutes, serum is heated to 37 °C and measurements are taken twice, 3 minutes apart using pH paper to determine the pH. Store at 4 °C. The serum is stable for 7 days. Always check the pH before each use. • 2. Before any centrifugation, the centrifuge temperature must be adjusted to 25 ± 2 °C. Preheat the centrifuge by spinning for 45 minutes at the same speed to be used in the assay (1900 g) with two tubes of water in the rotor and the temperature set to 25 °C. When the centrifuge stops immediately check the temperature of the tubes of water with a calibrated thermometer. The temperature of the tubes of water must be 25 ± 2 °C. […] Continue spinning and measuring the temperature and adjusting the setting until the temperature is 25 ± 2 °C. • 3. Prepare blank ultrafiltrate by pipetting blank pH 7.4 serum into an Amicon Centrifree Micropartition devices, centrifuge: fixed angle rotor, 1900 g, 25 °C for 20 minutes. Heat ultrafiltrate in a shaking water bath preheated to 37 °C. Measure ultrafiltrate pH and adjust to the pH of the serum (7.4 ± 0.2). • 4. Pipette 190 ul of blank ultrafiltrate into a set of labeled 1.7 mL polypropylene microfuge tubes for 3 of each level. Pipette 10 µL of the appropriate standard stock 50, 200, 1000 µg/mL to make standards 2.5, 10, and 50 µg/mL respectively. Vortex each tube well. One set of the standard samples are mixed 1:1 with 0.2 M acetic acid and injected onto the HPLC (MSTD). These samples are the membrane standards and will be used to compare to the other standards. Pipette 190 ul of ultrafiltrate and spike with 10 ul of whatever solution (e.g. water) the standards are prepared in to make the zero standard. • 5. Pipette 475 µL of blank heated pH 7.4 serum into a set of labeled 1.7 mL polypropylene microfuge tubes for 2 of each (Serum A and Serum B). Pipette 25 µL of the 1000 µg/mL standard stock into each tube, vortex each tube well to make serum standard 50 µg/mL. Remove 100 µL of serum and deproteinate with 200 µL 4% TCA while vortexing to make serum time 0 (serum 50, T0). Place serum tubes in a shaking water bath at 37 °C for 10 minutes. Pipet 100 µL of serum out and deproteinate with 200 µL 4% TCA, to make serum time 10 min (serum 50, T10). Pipet 200 ul serum standard 50 µg/mL into an ultrafiltration device, which is not treated with TCA, to determine free drug in samples (Rat Serum 50). • 6. Transfer serum and standard samples to labeled Amicon Centrifree Micropartition filters, and centrifuge: 1900 g, 25 °C for 10 minutes. The extracted serum samples (T0 and T 10) are spun down and supernatant is loaded into HPLC vials. • 7. 100 µL of ultrafiltrate sample and 100 µL of 0.2 M acetic acid were mixed together to stabilize the compound in ultrafiltrate. • 8. Transfer entire stabilized ultrafiltrate solution to a labeled autoinjector HPLC vial cap with Teflon septa, and inject on HPLC.
Peak height or area is used in a weighted linear regression.
High levels of binding to human serum proteins limits the concentration of compound available for antibacterial activity in the body.

| Compound | MIC [1] [µg/mL] | MIC [2] [µg/mL] | MIC [3] [µg/mL] | MIC [4] [µg/mL] | MIC [5] [µg/mL] | MIC [6] [µg/mL] | MIC [7] [µg/mL] | MIC [8] [µg/mL] | MIC [9] [µg/mL] | MIC [10] [µg/mL] | MIC [11] [µg/mL] | MIC [12] [µg/mL] | MIC [13] [µg/mL] | stability in rat serum (statement in words) [14] | Efficacy in murine septicemia %survival ([15]; Dose 5 mg/kg) | Efficacy in murine septicemia %survival ([15]; Dose 10 mg/kg) | ED50 ([15]; Staphylococcus aureus, ATCC13709, sc, read-out: Efficacy in murine septicemia ED50) [mg/kg] | fraction unbound [16] |
| --- | --- | --- | --- | --- | --- | --- | --- | --- | --- | --- | --- | --- | --- | --- | --- | --- | --- | --- |
| NCCSCc1ccncc1SC1=C(C(=O)O)N2C(=O)[C@@H](NC(=O)/C(=N\O)c3nsc(N)n3)[C@H]2SC1 [Cmpd 4, (7R)-7-[(Z)-2-(5-amino-1,2,4-thiadiazol-3-yl)-2-(hydroxyimino)acetamido]-3-[4-(2-aminoethylthiomethyl)pyrid-3-ylthio]-3-cephem-4-carboxylic acid] | 0.5 (≈ 0.879 µM) | 8 (≈ 14.1 µM) | > 32 | 2 (≈ 3.52 µM) | 8 (≈ 14.1 µM) | > 32 | 0.5 (≈ 0.879 µM) | 16 (≈ 28.1 µM) | 16 (≈ 28.1 µM) | 2 (≈ 3.52 µM) | 4 (≈ 7.03 µM) | 8 (≈ 14.1 µM) | 8 (≈ 14.1 µM) | improved stability |  |  |  |  |
| CN[C@H](CC(C)C)C(=O)N[C@H]1C(=O)N[C@@H](CC(N)=O)C(=O)N[C@H]2C(=O)N[C@H]3C(=O)N[C@H](C(=O)N[C@H](C(=O)O)c4cc(O)cc(O)c4-c4cc3ccc4O)[C@H](O)c3ccc(c(Cl)c3)Oc3cc2cc(c3O[C@@H]2O[C@H](CO)[C@@H](O)[C@H](O)[C@H]2O[C@H]2C[C@](C)(N)[C@H](O)[C@H](C)O2)Oc2ccc(cc2Cl)[C@H]1O [Van, Vancomycin] |  |  |  |  |  |  |  |  |  |  |  |  |  |  | 5/100% | 10/100% | 2.41 | 0.45 |
